Measured values: patent publication US6872195B2, “Chlorhexidine-containing medical devices” (The Trustees of Columbia University in the City of New York, priority 1996, dated 2005)

Experiments:
Staphylococcus aureus = assay: One-minute kill in bacterial culture (colony counts); assay type: cell-based; conditions: for CFU/ml (1 minute kill): TSB + 20% BCS, 10^7 CFU inoculum; for decrease in CFU: 500 micrograms per milliliter, 1 minute
Procedure: Various concentrations of chlorhexidine diacetate (“CHA”) and/or triclosan (“TC”) were dispensed in 1.0 ml trypticase soy broth (“TSB”) containing 20 percent bovine calf serum (“BCS”) and inoculated with 10^7 colony-forming units (“CFU”) of Staphylococcus aureus. After one minute, the cultures were diluted with drug-inactivating medium (1:100 dilution in LTSB drug inactivating medium, which is 5% Tween 80, 2% lecithin, 0.6% sodium oleate, 0.5% sodium thiosulfate, 0.1% protease peptone and 0.1% tryptone) and 0.2 ml of the diluted culture was subcultured on a trypticase soy agar plate for the determination of colony counts.

Solubility observation = assay type: physicochemical; conditions: water or alcohol
Text: When relatively soluble chlorhexidine salts such as chlorhexidine acetate (CHA) were used to impregnate catheters, the release was undesirably rapid. We investigated the use of CHX as a substitute for CHA.

CC(=O)O.CC(=O)O.NC(=N\CCCCCC/N=C(N)/N=C(\N)Nc1ccc(Cl)cc1)/N=C(\N)Nc1ccc(Cl)cc1 [CHA, chlorhexidine diacetate]
CFU/ml (1 minute kill) (Staphylococcus aureus; 500 μg/ml): 6.0 × 10^5 CFU/ml
CFU/ml (1 minute kill) (Staphylococcus aureus; 1000 μg/ml): 5.0 × 10^4 CFU/ml
CFU/ml (1 minute kill) (Staphylococcus aureus; 2000 μg/ml): 2.1 × 10^3 CFU/ml
decrease in CFU (Staphylococcus aureus): approximately 17 fold

N=C(NCCCCCCNC(=N)NC(=N)Nc1ccc(Cl)cc1)NC(=N)Nc1ccc(Cl)cc1 [CHX, chlorhexidine free base]
solubility (Solubility observation): not soluble

Oc1cc(Cl)ccc1Oc1ccc(Cl)cc1Cl [TC, 2,4,4′-trichloro-2′-hydroxydiphenyl ether]
CFU/ml (1 minute kill) (Staphylococcus aureus; 250 μg/ml): 2.0 × 10^5 CFU/ml
CFU/ml (1 minute kill) (Staphylococcus aureus; 500 μg/ml): 4.2 × 10^3 CFU/ml
decrease in CFU (Staphylococcus aureus): approximately 2400 fold
